Usually TGI stands for the concentration at which net growth stops. A higher TGI goes with less potent growth arrest. A word on the GI50: it is the concentration at which growth is held to half of that of the control.

Some test systems named below: UACC-62 melanoma; NCI-H23 lung; SF-539 CNS; HL-60(TB) leukemia; IGROV1 ovarian; HOP-92 NSCLC; SNB-19 CNS; UO-31 renal; NCI-H460 lung; SK-MEL-28 melanoma.
What all share (assay): DTP human tumour cell line panel, 48 h

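Results reflect a 48-hour exposure of cells in 96-well plates to compound at five concentrations. GI50 is the concentration that inhibits growth by half. At the TGI there is no net growth.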

On to `CC(=O)OC1CCC2(C)C3CCC4(C)C(c5ccc(=O)oc5)CC5OC54C3CCC2(O)C1` (stereo not given), for which the concentration for total growth inhibition (TGI) in the assay with UACC-62 melanoma worked out at 6.95 µM; in the assay with NCI-H23 lung, 2.98 µM; in the assay with SF-539 CNS, 2.78 µM; in the assay with HL-60(TB) leukemia it was 1.48 µM; with IGROV1 ovarian it was 21 µM; in the assay on HOP-92 NSCLC, 7.59 µM. Moreover, the total growth inhibition concentration (TGI) worked out at 31.8 µM in the assay with SNB-19 CNS, 9.38 µM in the assay with UO-31 renal, 1.75 µM in the assay on NCI-H460 lung and 21.7 µM in the assay with SK-MEL-28 melanoma.
As to `CC(=O)Oc1cccc2c(/C=N/NC(N)=S)ncc(C)c12`, the TGI in the assay with UACC-62 melanoma was 12.3 µM; in the assay with NCI-H23 lung, 13.4 µM; with SF-539 CNS, 1.98 µM; in the assay with HL-60(TB) leukemia, above 100 µM; with IGROV1 ovarian, 20.9 µM; with HOP-92 NSCLC it was 32.9 µM. In addition, the TGI in the assay on SNB-19 CNS is 16.3 µM; in the assay on UO-31 renal it was 4.43 µM; in the assay with NCI-H460 lung, 7.81 µM; in the assay on SK-MEL-28 melanoma it was above 48.4 µM.
In the case of `CC1CC=CC(O)C1` (stereo not given), the concentration for total growth inhibition (TGI) with UACC-62 melanoma, in the assay with NCI-H23 lung, in the assay with SF-539 CNS, in the assay with HL-60(TB) leukemia, in the assay with IGROV1 ovarian and in the assay with HOP-92 NSCLC was above 100 µM throughout. The total growth inhibition concentration (TGI) in the assay with SNB-19 CNS, in the assay on UO-31 renal, in the assay on NCI-H460 lung and in the assay on SK-MEL-28 melanoma was above 100 µM in each case.
Take `NC(CCCCP(=O)(O)O)C(=O)O` (stereo not given): the TGI with UACC-62 melanoma, in the assay with NCI-H23 lung, in the assay on SF-539 CNS, in the assay on HL-60(TB) leukemia, with IGROV1 ovarian and in the assay with HOP-92 NSCLC was above 100 µM in each case. Further, the concentration for total growth inhibition (TGI) in the assay on SNB-19 CNS, with UO-31 renal, with NCI-H460 lung and with SK-MEL-28 melanoma was above 100 µM in each case.
As to `CCC[CH2][Ge]([CH2]CCC)([CH2]CCC)[O]C(=O)CC(=O)c1ccccc1`, the GI50 was 1.7 µM in the assay with UACC-62 melanoma; 0.28 µM in the assay with NCI-H23 lung; 1.57 µM in the assay with SF-539 CNS; 0.138 µM in the assay on HL-60(TB) leukemia; 2.2 µM with IGROV1 ovarian; 0.331 µM in the assay on HOP-92 NSCLC. Moreover, the GI50 with SNB-19 CNS is 11.7 µM; with UO-31 renal, 1.66 µM; with NCI-H460 lung, 0.325 µM; with SK-MEL-28 melanoma, 4.48 µM. Moreover, the concentration for total growth inhibition (TGI) is 10.1 µM in the assay on UACC-62 melanoma; 14.8 µM in the assay with NCI-H23 lung; 6.17 µM in the assay on SF-539 CNS; 11.5 µM with HL-60(TB) leukemia; 13.9 µM with IGROV1 ovarian; 9.88 µM in the assay on HOP-92 NSCLC. Moreover, the TGI in the assay with SNB-19 CNS stood at 24 µM; in the assay with UO-31 renal it was 15.9 µM; with NCI-H460 lung, 12.4 µM; in the assay with SK-MEL-28 melanoma it was 19.1 µM.
For the compound `NNC(N)Nc1ccccc1` (stereo not given), the total growth inhibition concentration (TGI) in the assay with UACC-62 melanoma, in the assay on NCI-H23 lung, in the assay with SF-539 CNS, in the assay on HL-60(TB) leukemia, with IGROV1 ovarian and in the assay with HOP-92 NSCLC was above 100 µM throughout. For the same compound, the TGI with SNB-19 CNS, with UO-31 renal, with NCI-H460 lung and with SK-MEL-28 melanoma was above 100 µM each time.
For the compound `NCCCNc1nc2ccccc2c2c(=O)c3cc(OC(F)(F)F)ccc3sc12`, the GI50 is 1.66 µM with UACC-62 melanoma; 1.62 µM in the assay with NCI-H23 lung; 1.68 µM in the assay with SF-539 CNS; 1.84 µM in the assay with HL-60(TB) leukemia; 1.46 µM in the assay on IGROV1 ovarian; 1.08 µM with HOP-92 NSCLC. Besides, the GI50 was 1.63 µM in the assay with SNB-19 CNS, 1.49 µM in the assay with UO-31 renal, 1.11 µM in the assay with NCI-H460 lung and 1.8 µM in the assay on SK-MEL-28 melanoma. The TGI in the assay on UACC-62 melanoma came out at 3.07 µM; in the assay on NCI-H23 lung, 3.09 µM; in the assay on SF-539 CNS, 3.15 µM; in the assay on HL-60(TB) leukemia, 3.59 µM; in the assay on IGROV1 ovarian, 2.9 µM; in the assay on HOP-92 NSCLC, 2.36 µM. The total growth inhibition concentration (TGI) in the assay on SNB-19 CNS is 3.12 µM; in the assay with UO-31 renal it was 2.9 µM; with NCI-H460 lung, 2.52 µM; in the assay on SK-MEL-28 melanoma, 3.24 µM.
Turning to `C=CC(Br)(CBr)CCC(Cl)C(C)C` (stereo not given), the TGI was found to be 2.98 µM with UACC-62 melanoma; 8.82 µM in the assay on NCI-H23 lung; 3.84 µM with SF-539 CNS; 2.38 µM in the assay on HL-60(TB) leukemia; 8.43 µM with IGROV1 ovarian; 4.72 µM in the assay with HOP-92 NSCLC. Moreover, the TGI with SNB-19 CNS came out at 6.82 µM; with UO-31 renal it was 3.08 µM; in the assay on NCI-H460 lung, 4.3 µM; in the assay with SK-MEL-28 melanoma it was 2.98 µM.
As for `COc1ccccc1C1C(C(=O)O)=C(CO)Oc2cc3c(cc21)OCO3` (stereo not given), the TGI in the assay with UACC-62 melanoma, in the assay with NCI-H23 lung, in the assay with SF-539 CNS, with HL-60(TB) leukemia, with IGROV1 ovarian and in the assay with HOP-92 NSCLC was above 100 µM in each case. Moreover, the TGI in the assay on SNB-19 CNS, in the assay with UO-31 renal, in the assay with NCI-H460 lung and with SK-MEL-28 melanoma was above 100 µM each time.
`Cc1ccc(S(=O)(=O)Oc2cc(-c3ccccc3)nc3ccccc23)cc1`: the total growth inhibition concentration (TGI) with UACC-62 melanoma was 20.7 µM; with NCI-H23 lung, 12.2 µM; in the assay on SF-539 CNS, 4.87 µM; in the assay on HL-60(TB) leukemia, 6.88 µM; in the assay with IGROV1 ovarian, 22.2 µM; in the assay on HOP-92 NSCLC, 22.9 µM. Further, the TGI came to 12.3 µM in the assay on SNB-19 CNS, 35.6 µM in the assay on UO-31 renal, 13.7 µM in the assay on NCI-H460 lung and 68.7 µM in the assay on SK-MEL-28 melanoma.
`Cc1cc(=O)[nH]c(NN2C(Cl)C(=O)C2c2cccc(O)c2)n1` (stereo not given): the total growth inhibition concentration (TGI) in the assay on UACC-62 melanoma was 17.8 µM; with NCI-H23 lung, above 100 µM; in the assay with SF-539 CNS, 31.6 µM; with HL-60(TB) leukemia, 29.8 µM; in the assay on IGROV1 ovarian it was above 100 µM; in the assay with HOP-92 NSCLC, above 100 µM. In addition, the TGI with SNB-19 CNS is above 100 µM; with UO-31 renal, 24.7 µM; in the assay with NCI-H460 lung, above 100 µM; in the assay with SK-MEL-28 melanoma it was above 100 µM.
In the case of `O=C(OC(=O)n1ccc2ccccc21)n1ccc2ccccc21`, the TGI in the assay on UACC-62 melanoma, in the assay with NCI-H23 lung, in the assay with SF-539 CNS, with HL-60(TB) leukemia, in the assay with IGROV1 ovarian and with HOP-92 NSCLC was above 100 µM throughout. Moreover, the TGI with SNB-19 CNS, with UO-31 renal, with NCI-H460 lung and with SK-MEL-28 melanoma was above 100 µM each time.
